Molecular target: CDK2 (UniProt P24941)
Experiment: Enzyme Assay

For `C[C@@H](NC(=O)c1cc2c(NC(=O)c3ccc(N4CCN(C)CC4)cc3)n[nH]c2s1)c1ccccc1`, the IC50 was under 0.5 µM.

In the case of `CCCCNC(=O)c1cc2[nH]nc(NC(=O)C3CC3)c2s1`, the IC50 is reported as under 0.5 µM.

With `O=C(Nc1n[nH]c2cc(C(=O)O)oc12)c1ccc(N2CCOCC2)cc1` the IC50 was under 0.5 µM.

For `CCCCNC(=O)c1cc2[nH]nc(NC(=O)c3cccs3)c2s1`, the IC50 was under 0.5 µM.

`CCNC(=O)c1cc2[nH]nc(NC(=O)c3ccc(N4CCN(C)CC4)cc3)c2s1` was tested, and the IC50 was under 0.5 µM.

`Cc1c(C(=O)NCc2ccc(F)cc2)sc2c(NC(=O)c3cccs3)n[nH]c12` gave an IC50 of under 0.5 µM.

`CN1CCN(c2ccc(C(=O)Nc3n[nH]c4cc(C(=O)NCc5ccco5)sc34)cc2)CC1` was tested, and the IC50 was under 0.5 µM.

In the case of `O=C(Nc1n[nH]c2cc(C(=O)NCc3ccccc3)sc12)c1cc(F)cc(F)c1`, the IC50 is reported as under 0.5 µM.

For `O=C(Nc1n[nH]c2cc(C(=O)O)sc12)c1ccc(N2CCOCC2)cc1`, the IC50 was under 0.5 µM.

In the case of `CN1CCN(c2ccc(C(=O)Nc3n[nH]c4cc(C(=O)NCc5ccoc5)sc34)cc2)CC1`, the IC50 is reported as under 0.5 µM.

In the case of `CN1CCN(C(=O)c2cc3[nH]nc(NC(=O)c4ccc(F)cc4)c3o2)CC1`, the IC50 is reported as under 0.5 µM.

In the case of `CCC(NC(=O)c1cc2[nH]nc(NC(=O)c3ccc(N4CCOCC4)cc3)c2o1)c1ccccc1` (configuration not stated), the IC50 is reported as under 0.5 µM.

With `CCCCNC(=O)c1cc2[nH]nc(NC(=O)CCCC)c2s1` the IC50 was under 0.5 µM.

Work on `C=CCNC(=O)c1cc2[nH]nc(NC(=O)NCc3ccccc3)c2s1` yielded an IC50 of under 0.5 µM.

`CCC(NC(=O)c1cc2[nH]nc(NC(=O)c3ccc(N4CCN(C)CC4)cc3)c2o1)c1ccccc1` (configuration not stated) was tested, and the IC50 was under 0.5 µM.

Work on `CN1CCN(C(=O)c2cc3[nH]nc(NC(=O)c4ccc(F)cc4)c3s2)CC1` yielded an IC50 of under 0.5 µM.

Compound `Cc1c(C(=O)NCc2ccc(F)cc2)sc2c(NC(=O)c3ccc(F)cc3)n[nH]c12` has an IC50 of under 0.5 µM.
